Where two headings read alike, the source gives them in different places.
System: HSV-2
Experiment: Plaque reduction assay, HSV-2 clinical isolates on Vero cells
Type: cell-based
Conditions: Human alphaherpesvirus 2, Vero
Description: Viral isolates were used to infect a sub-confluent monolayer of Vero cells at a concentration of 75 or 50 plaque forming units (PFU) per well for HSV-1 and HSV-2, respectively. […] CMC medium typically used to create a semisolid interface and prevents indiscrimate viral spreading. Other materials (e.g. agar) may also be used to create this interface.
Cells were fixed with 10% formalin and stained with crystal violet before enumeration of the plaques (microscopic observation or use of fluorescent antibodies for detection is also suitable). The data obtained from these experiments were then expressed as percent inhibition of viral infectivity relative to the no drug control.
Definitions of phenotypic drug susceptibility classification as sensitive or resistant were as follows: ACV, <3 μM or >40 μM; PCV, <10 μM or >40 μM; CDV, <24 μM or >30 μM; FOS, <250 μM or >400 μM; and ACV, <6.5 μM or >40 μM; PCV, <38 μM or >40 μM; FOS, <250 μM or >400 μM for HSV-1 and HSV-2, respectively. Any IC50 values falling in between these sensitive and resistant cut-offs were reported as intermediate resistance.
The phenotype (i.e. reactivity to a drug) of the virus was characterised by the plaque reduction assay as described above. The present inventors have characterised the resistance-causing phenotype of a large number of TK and DNA pol mutations.

O=C(O)P(=O)(O)O [Foscarnet, foscarnet]
IC50 (isolate HPG001, HSV-2 TK A125T (373G>A), read-out: Drug susceptibility (IC50 value)): 236 µM | IC50 (isolate HPG001, HSV-2 TK A125T (373G>A), read-out: Drug susceptibility Foscarnet (FOS)): < 250 µM | IC50 (isolate HPG001, HSV-2 pol H714R (2141A>G), read-out: Drug susceptibility (IC50 value)): 236 µM | IC50 (isolate HPG001, HSV-2 pol H714R (2141A>G), read-out: Drug susceptibility Foscarnet (FOS)): < 250 µM | IC50 (isolate HPG004, HSV-2 pol M494T (1481T>C), also pol S729N, read-out: Drug susceptibility (IC50 value)): 349 µM | IC50 (isolate HPG004, HSV-2 pol M494T (1481T>C), also pol S729N, read-out: Drug susceptibility Foscarnet (FOS)): 250 to 400 µM | IC50 (isolate HPG007, HSV-2 pol R628G (1882C>G), read-out: Drug susceptibility (IC50 value)): 783 µM | IC50 (isolate HPG007, HSV-2 pol R628G (1882C>G), read-out: Drug susceptibility Foscarnet (FOS)): > 400 µM | IC50 (isolate HPG017, HSV-2 TK Q186H (558G>T), read-out: Drug susceptibility (IC50 value)): 118 µM | IC50 (isolate HPG017, HSV-2 TK Q186H (558G>T), read-out: Drug susceptibility Foscarnet (FOS)): < 250 µM | IC50 (isolate HPG022, HSV-2 TK E213D (639A>C), read-out: Drug susceptibility (IC50 value)): 82 µM | IC50 (isolate HPG022, HSV-2 TK E213D (639A>C), read-out: Drug susceptibility Foscarnet (FOS)): < 250 µM | IC50 (isolate HPG022, HSV-2 pol D174Y (520G>T), read-out: Drug susceptibility (IC50 value)): 82 µM | IC50 (isolate HPG022, HSV-2 pol D174Y (520G>T), read-out: Drug susceptibility Foscarnet (FOS)): < 250 µM | IC50 (isolate HPG023, HSV-2 TK Q186H (558G>T), read-out: Drug susceptibility (IC50 value)): 78 µM | IC50 (isolate HPG023, HSV-2 TK Q186H (558G>T), read-out: Drug susceptibility Foscarnet (FOS)): < 250 µM | IC50 (isolate HPG024, HSV-2 TK E213D (639A>C), read-out: Drug susceptibility (IC50 value)): 88.7 µM | IC50 (isolate HPG024, HSV-2 TK E213D (639A>C), read-out: Drug susceptibility Foscarnet (FOS)): < 250 µM | IC50 (isolate HPG028, HSV-2 TK 98stop or A94fs (276delG, 278delG, 279delG, or 280delG), read-out: Drug susceptibility (IC50 value)): 98.8 µM | IC50 (isolate HPG028, HSV-2 TK 98stop or A94fs (276delG, 278delG, 279delG, or 280delG), read-out: Drug susceptibility Foscarnet (FOS)): < 250 µM | IC50 (isolate HPG028, HSV-2 pol E776Q (2326G>C), also TK deletion (G) nt 276-280, read-out: Drug susceptibility (IC50 value)): 98.8 µM | IC50 (isolate HPG028, HSV-2 pol E776Q (2326G>C), also TK deletion (G) nt 276-280, read-out: Drug susceptibility Foscarnet (FOS)): < 250 µM | IC50 (isolate HPG028, HSV-2 pol R775C, R775W (2323C>T; 2325C>G), also TK deletion (G) nt 276-280, read-out: Drug susceptibility (IC50 value)): 98.8 µM | IC50 (isolate HPG028, HSV-2 pol R775C, R775W (2323C>T; 2325C>G), also TK deletion (G) nt 276-280, read-out: Drug susceptibility Foscarnet (FOS)): < 250 µM | IC50 (isolate HPG030, HSV-2 TK Q90stop (268C>T), read-out: Drug susceptibility (IC50 value)): 92.3 µM | IC50 (isolate HPG030, HSV-2 TK Q90stop (268C>T), read-out: Drug susceptibility Foscarnet (FOS)): < 250 µM | IC50 (isolate HPG030, HSV-2 pol E761K (2281G>A), also TK Q90stop, read-out: Drug susceptibility (IC50 value)): 92.3 µM | IC50 (isolate HPG030, HSV-2 pol E761K (2281G>A), also TK Q90stop, read-out: Drug susceptibility Foscarnet (FOS)): < 250 µM | IC50 (isolate HPG034, HSV-2 TK L313S (938A>C), read-out: Drug susceptibility Foscarnet (FOS)): < 250 µM | IC50 (isolate HPG036, HSV-2 TK E84K (250G>A), read-out: Drug susceptibility (IC50 value)): 78.8 µM | IC50 (isolate HPG036, HSV-2 TK E84K (250G>A), read-out: Drug susceptibility Foscarnet (FOS)): < 250 µM | IC50 (isolate HPG038, HSV-2 TK R34C (100C>T), read-out: Drug susceptibility (IC50 value)): 73.7 µM | IC50 (isolate HPG038, HSV-2 TK R34C (100C>T), read-out: Drug susceptibility Foscarnet (FOS)): < 250 µM | IC50 (isolate HPG044, HSV-2 TK M86L (256A>C), read-out: Drug susceptibility (IC50 value)): 73.8 µM | IC50 (isolate HPG044, HSV-2 TK M86L (256A>C), read-out: Drug susceptibility Foscarnet (FOS)): < 250 µM | IC50 (isolate HPG048, HSV-2 TK Q90stop (268C>T), read-out: Drug susceptibility (IC50 value)): 56.9 µM | IC50 (isolate HPG048, HSV-2 TK Q90stop (268C>T), read-out: Drug susceptibility Foscarnet (FOS)): < 250 µM | IC50 (isolate HPG048, HSV-2 pol E761K (2281G>A), also TK Q90stop, read-out: Drug susceptibility (IC50 value)): 56.9 µM | IC50 (isolate HPG048, HSV-2 pol E761K (2281G>A), also TK Q90stop, read-out: Drug susceptibility Foscarnet (FOS)): < 250 µM | IC50 (isolate HPG057, HSV-2 TK 98stop or A94fs (276delG, 278delG, 279delG, or 280delG), read-out: Drug susceptibility (IC50 value)): 98.5 µM | IC50 (isolate HPG057, HSV-2 TK 98stop or A94fs (276delG, 278delG, 279delG, or 280delG), read-out: Drug susceptibility Foscarnet (FOS)): < 250 µM | IC50 (isolate HPG058, HSV-2 TK 183stop or P154fs (458delC, 459delC, 460delC, or 461delC), read-out: Drug susceptibility (IC50 value)): 59 µM | IC50 (isolate HPG058, HSV-2 TK 183stop or P154fs (458delC, 459delC, 460delC, or 461delC), read-out: Drug susceptibility Foscarnet (FOS)): < 250 µM | IC50 (read-out: Drug susceptibility (IC50 value), isolate HPG034, HSV-2 TK L313S (938A>C)): 73.5 µM | IC50 (read-out: Drug susceptibility (IC50 value), isolate HPG056, HSV-2 pol M447L (1339A>C)): 88 µM | IC50 (read-out: Drug susceptibility Foscarnet (FOS), isolate HPG056, HSV-2 pol M447L (1339A>C)): < 250 µM

Source: patent US12281363B2, “Methods for detecting antiviral-drug resistant virus” (Secretary of State for Health and Social Care, priority 2018, dated 2025)
